Tested on: 379773-124-R-J2-PDC spheroid viability
Experiment: Anticancer human tumor 379773-124-R-J2-PDC patient-derived endometrial carcinoma cell line growth inhibition [POLQ]
Details: spheroids with HUVEC and MSC; for IC50: curve of first compound; for viability, T/C: stronger effect = lower value; active = viability on the fitted dose curve at most 10% of control; inactive = the rest
In short: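 Three-cell-type spheroids modelling solid tumor plus stroma served as the readout system; POL inhibitors were tested individually and in combination, concentration ranges set by clinical Cmax where known.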
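Note: spheroids exposed to drugs for seven days before readout.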
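Throughout, for viability, T/C: percent viability relative to DMSO vehicle control taken as 100%.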

CC1COCCN1c1cc(C2(S(C)(=N)=O)CC2)nc(-c2ccnc3[nH]ccc23)n1 (configuration not stated) + Cc1cccc(N(C)C(=O)C2C(O)CCN2c2nc(C)cc(C(F)(F)F)c2C#N)c1
active: viability, T/C (second compound 0.0316 µM, first compound 10 µM) 5.98% | viability, T/C (second compound 0.1 µM, first compound 10 µM) 5.96% | viability, T/C (second compound 0.316 µM, first compound 10 µM) 8.62% | viability, T/C (second compound 1 µM, first compound 10 µM) 6.64% | viability, T/C (second compound 3.16 µM, first compound 10 µM) 7.75% | viability, T/C (second compound 10 µM, first compound 10 µM) 8.39%
1870 nM: IC50 (second compound 0.1 µM)
1840 nM: IC50 (second compound 1 µM)
2060 nM: IC50 (second compound 0.0316 µM)
1630 nM: IC50 (second compound 10 µM)
2030 nM: IC50 (second compound 3.16 µM)
1970 nM: IC50 (second compound 0.316 µM)
inactive: viability, T/C (second compound 0.0316 µM, first compound 0.0316 µM) 83.3% | viability, T/C (second compound 0.0316 µM, first compound 0.1 µM) 84.7% | viability, T/C (second compound 0.0316 µM, first compound 0.316 µM) 81.1% | viability, T/C (second compound 0.0316 µM, first compound 1 µM) 77% | viability, T/C (second compound 0.0316 µM, first compound 3.16 µM) 34.2% | viability, T/C (second compound 0.1 µM, first compound 0.0316 µM) 89.4% | viability, T/C (second compound 0.1 µM, first compound 0.1 µM) 91.2% | viability, T/C (second compound 0.1 µM, first compound 0.316 µM) 79.7% | viability, T/C (second compound 0.1 µM, first compound 1 µM) 81.5% | viability, T/C (second compound 0.1 µM, first compound 3.16 µM) 23.9% | viability, T/C (second compound 0.316 µM, first compound 0.0316 µM) 87.1% | viability, T/C (second compound 0.316 µM, first compound 0.1 µM) 97% | viability, T/C (second compound 0.316 µM, first compound 0.316 µM) 80.1% | viability, T/C (second compound 0.316 µM, first compound 1 µM) 78.6% | viability, T/C (second compound 0.316 µM, first compound 3.16 µM) 30.6% | viability, T/C (second compound 1 µM, first compound 0.0316 µM) 81.4% | viability, T/C (second compound 1 µM, first compound 0.1 µM) 78.8% | viability, T/C (second compound 1 µM, first compound 0.316 µM) 79.8% | viability, T/C (second compound 1 µM, first compound 1 µM) 69.4% | viability, T/C (second compound 1 µM, first compound 3.16 µM) 32.7% | viability, T/C (second compound 3.16 µM, first compound 0.0316 µM) 84.4% | viability, T/C (second compound 3.16 µM, first compound 0.1 µM) 88.7% | viability, T/C (second compound 3.16 µM, first compound 0.316 µM) 79.2% | viability, T/C (second compound 3.16 µM, first compound 1 µM) 61.8% | viability, T/C (second compound 3.16 µM, first compound 3.16 µM) 42.2% | viability, T/C (second compound 10 µM, first compound 0.0316 µM) 84.6% | viability, T/C (second compound 10 µM, first compound 0.1 µM) 73.3% | viability, T/C (second compound 10 µM, first compound 0.316 µM) 79.2% | viability, T/C (second compound 10 µM, first compound 1 µM) 62.5% | viability, T/C (second compound 10 µM, first compound 3.16 µM) 32.2%

From PubChem BioAssay AID1963848 (Molecular Pharmacology Branch, DTP, NCI, 2024)
